Laboratory results taken from the supplement of paper PMC10307832.

How the values were obtained:
Experiment in all cases: relative viability (nuclei count vs DMSO), 5 days (fraction); higher = more cells survive
[1] = compound: CC(C)C[C@H](NC(=O)[C@H](CCc1ccccc1)NC(=O)CN1CCOCC1)C(=O)N[C@@H](Cc1ccccc1)C(=O)N[C@@H](CC(C)C)C(=O)[C@@]1(C)CO1 [Carfilzomib] + NC(=O)Nc1cc(-c2cccc(F)c2)sc1C(=O)N[C@H]1CCCNC1 [AZD7762] (partner 0.2 µM)
Summary of the method: (§1)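 Five library-drug doses in √10 steps were combined with a fixed anchor-drug dose, or a single drug was given alone, by pin tool to lung cancer cell lines in 1536-well plates the day after seeding. Nuclei were stained and counted after 5 days. Relative viability is the nuclei count in treated wells over that in vehicle wells, taken as the median of duplicate plates.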

[2] = compound: C[C@@H](Oc1cc(-c2cnn(C3CCNCC3)c2)cnc1N)c1c(Cl)ccc(F)c1Cl [Crizotinib] + N=C(N)NC(=N)NCCc1ccccc1 [Phenformin] (partner 250 µM)
Summary of the method: as §1

[3] = compound: O=C(c1cc(Cc2n[nH]c(=O)c3ccccc23)ccc1F)N1CCN(C(=O)C2CC2)CC1 [Olaparib] + C[C@]1(O)C[C@@H](c2nc(-c3ccc4ccc(-c5ccccc5)nc4c3)c3c(N)nccn32)C1 [Linsitinib] (partner 1 µM)
Summary of the method: as §1

[4] = compound: O=C(c1cc(Cc2n[nH]c(=O)c3ccccc23)ccc1F)N1CCN(C(=O)C2CC2)CC1 [Olaparib] + Cc1nc(NC(=O)N2CCC[C@H]2C(N)=O)sc1-c1ccnc(C(C)(C)C(F)(F)F)c1 [Alpelisib] (partner 2 µM)
Summary of the method: as §1

| Cell Line | relative viability ([1]; first compound 0.001 µM) | relative viability ([1]; first compound 0.003162 µM) | relative viability ([1]; first compound 0.01 µM) | relative viability ([1]; first compound 0.03162 µM) | relative viability ([1]; first compound 0.1 µM) | relative viability ([2]; first compound 0.01 µM) | relative viability ([2]; first compound 0.03162 µM) | relative viability ([2]; first compound 0.1 µM) | relative viability ([2]; first compound 0.3162 µM) | relative viability ([2]; first compound 1 µM) | relative viability ([3]; first compound 0.08 µM) | relative viability ([3]; first compound 0.253 µM) | relative viability ([3]; first compound 2.53 µM) | relative viability ([3]; first compound 8 µM) | relative viability ([4]; first compound 0.08 µM) | relative viability ([4]; first compound 0.253 µM) | relative viability ([4]; first compound 2.53 µM) | relative viability ([4]; first compound 8 µM) |
| --- | --- | --- | --- | --- | --- | --- | --- | --- | --- | --- | --- | --- | --- | --- | --- | --- | --- | --- |
| NCI-H647 | 0.385 | 0.468 | 0.29 | 0.0154 | 0.0223 | 0.494 | 0.634 | 0.429 | 0.513 | 0.488 | 1.4 | 1.05 | 0.919 | 0.779 | 1.41 | 1.05 | 1.29 | 0.954 |
| NCI-H650 | 0.862 | 1.1 | 0.964 | 0.88 | 0.23 | 0.392 | 0.451 | 0.482 | 0.365 | 0.44 | 0.806 | 0.735 | 0.776 | 0.724 | 1.33 | 1.17 | 1.04 | 0.84 |
| NCI-H727 | 0.511 | 0.498 | 0.685 | 0.608 | 0.242 | – | 0.608 | 0.755 | – | 0.511 | 0.283 | 0.241 | 0.247 | 0.282 | 0.607 | 0.527 | 0.597 | 0.332 |
| NCI-H838 | 0.945 | 0.989 | 0.954 | 0.962 | 0.621 | 0.553 | 0.604 | 0.556 | 0.516 | 0.526 | 1.05 | 0.928 | 0.971 | 0.933 | 1.09 | 0.933 | 0.978 | 0.944 |
| NCI-H1355 | 0.8 | 0.886 | 0.91 | 0.512 | 0.207 | 0.431 | 0.497 | 0.522 | 0.382 | 0.442 | 0.882 | 0.811 | 0.775 | 0.637 | 0.804 | 0.716 | 0.825 | 0.798 |
| NCI-H1395 | – | 0.451 | 0.399 | 0.346 | 0.327 | 0.435 | 0.464 | 0.493 | 0.427 | 0.382 | 1.14 | 0.896 | 0.67 | 0.734 | 1 | 0.748 | 0.662 | 0.504 |
| NCI-H1437 | 1.07 | 1.13 | 1.13 | 1.14 | 0.478 | 0.278 | 0.306 | 0.3 | 0.272 | 0.345 | 1.18 | 0.927 | 1.02 | 0.788 | 0.987 | 0.987 | 0.929 | 0.764 |
| NCI-H1651 | 0.372 | 0.471 | 0.457 | 0.208 | 0.0827 | 0.294 | 0.356 | 0.292 | 0.287 | 0.336 | 1.01 | 0.821 | 0.679 | 0.297 | 0.927 | 0.869 | 0.714 | 0.356 |
| NCI-H1666 | 0.837 | 0.935 | 1.1 | 0.704 | 0.475 | 0.514 | 0.598 | 0.583 | 0.558 | 0.546 | 0.901 | 0.841 | 0.75 | 0.655 | 1.01 | 0.945 | 0.844 | 0.676 |
| NCI-H1734 | 0.549 | 0.633 | 0.521 | 0.204 | 0.114 | 0.358 | 0.368 | 0.385 | – | 0.367 | 0.998 | 0.809 | 0.799 | 0.579 | 0.669 | 0.612 | 0.623 | 0.519 |
| NCI-H1755 | 0.476 | 0.502 | 0.496 | 0.435 | 0.409 | 0.593 | 0.681 | 0.643 | 0.527 | 0.569 | 1.03 | 0.917 | 0.92 | 0.918 | 1.05 | 0.867 | 0.898 | 0.841 |
| NCI-H1792 | – | 0.96 | 0.742 | 0.38 | 0.0881 | – | 0.357 | 0.314 | – | 0.328 | 0.7 | 0.46 | 0.421 | 0.324 | 0.675 | 0.596 | 0.56 | 0.506 |
| NCI-H1915 | 0.61 | 0.711 | 0.57 | 0.414 | 0.125 | 0.382 | 0.377 | 0.367 | – | 0.359 | 1.14 | 1.02 | 0.734 | 0.651 | 0.986 | 0.938 | 0.767 | 0.59 |
| NCI-H1944 | 0.538 | 0.568 | 0.587 | 0.448 | 0.317 | 0.19 | 0.194 | 0.189 | 0.195 | 0.198 | 1.22 | 1.05 | 1.12 | 0.876 | 0.881 | 0.743 | 0.699 | 0.717 |
| NCI-H1975 | 0.651 | 0.804 | 0.684 | 0.222 | 0.19 | 0.376 | 0.419 | 0.4 | 0.41 | 0.399 | 1.02 | 0.95 | 0.9 | 0.895 | 0.764 | 0.594 | 0.692 | 0.612 |
